# According to US20220047569A1, “METHOD AND COMPOUND FOR USE, IN TREATING AND/OR PREVENTING NETOSIS” (Jubilant EpiPad LLC, priority 2020, published 2022):
# Columns and labels:
# [1] = tested on: silica induced lung fibrosis; experiment: Silica induced pro-fibrotic lung model; assay type: in vivo, C57BL/6 female mice; conditions: 50 mg/kg PO, BID, day 7 to 11, therapeutic; silica mice
# Protocol: The instillation of silica into the murine lung results in the development of fibrotic nodules that resemble simple silicotic nodular fibrosis, which develop in humans following some occupational exposures to dust and particulate aerosols. Silica can be delivered to rodents via aerosolization, intratracheal administration or oropharyngeal aspiration. C57BL/6 female mice at an age of 6-8 weeks were instilled with silica particles (2.5 mg/mouse) by non-surgical intratracheal (IT) method. The day of silica instillation was defined as day 0. Test compound was administered twice daily and standard of care was dosed once daily from day 7 to 11 for therapeutic intervention. Animals were monitored and evaluated for their clinical signs and body weight loss. Animals were euthanized on day 11 and the lungs were weighed and biomarkers were analyzed in lung.
# EMT-6 cells = experiment: Murine breast cancer efficacy model, EMT-6 allograft; assay type: in vivo, Balb/C female mice
# Protocol: PAD4 is highly expressed in malignant tumours of various cell types, Here, the mouse mammary carcinoma of 4T1 and EMT6 cells were used as an experimental model. Mouse 4T1, and EMT-6, a breast cancer cell line was sourced from American Type Culture Collection (ATCC), USA. Cells were grown according to the product information. To establish allografts, the cells were harvested by trypsinization when they reached around 70 to 80% confluence. After harvesting, Balb/C female mice (7-8 weeks) were implanted with 4T1 (1 million cells/site) and EMT-6 (0.5 million cells/site) subcutaneously in the dorsal right flank of mice using a 1 mL BD syringe attached to a 24-gauge needle. When the tumors became palpable tumor measurement was initiated and at an approximate tumor volume of ˜110 and 93 mm3, respectively. Animals were randomized into different treatment groups keeping tumor volume and the number of animals/group similar across the groups and compound 143 treatment was initiated. […]
# Tumor dimensions (length and breadth) were measured on days 1 (animal randomization based on tumor volume) and thrice weekly thereafter until study termination.
# Tumor volumes were calculated using the formula (b2*1)*0.52 where l=length, b=breadth (Dusan Djokovic et al., BMC Cancer, 2010, 10:641). […]
smiles,measurement,setting,value
"N[C@@H]1CCCN(C(=O)c2cc3c4c(c2)nc(-c2cc5cccc(Cl)c5n2CC2CC2)n4CCO3)C1 [Compound 143, (R)-(3-aminopiperidin-1-yl)(2-(7-chloro-1-(cyclopropylmethyl)-1H-indol-2-yl)-3,4-dihydro-5-oxa-1,2a-diazaacenaphthylen-7-yl)methanone]",Fibronectin level,[1],significant decrease
same,Lung weight,[1],significant decrease
same,TGI (percent tumor growth inhibition),"EMT-6 cells; 50 mg/kg, BID, PO, day 13, EMT-6",42.6%
same,Body weight changes,"EMT-6 cells; EMT-6 bearing mice, BID PO for 13 days",no significant body weight changes
